A short description of series [1]: Stabilisation of DIA against hydrolysis to Rhe under simulated physiological conditions. In kind it is physicochemical. The conditions noted are these: pH 7.4, 37 °C; for degradation of DIA / DIA degraded: 6 h. Here is the method:
The stabilising effect of Bet6 and Carn6 on DIA’s hydrolysis was investigated under simulated in vitro conditions. […] After equilibrating for 30 min at 25 °C, the samples were transferred to a thermostatic shaking bath at 37 °C, and their pH was rapidly brought to 7.4 by adding 10 N NaOH. At defined time intervals (30 min, 1 h, 2 h, 3 h, 4 h, 5 h, and 6 h), a 500 µL sampling was performed, and the hydrolysis was blocked by adding 2 µL of 37% HCl, bringing the pH back to 5. The amount of Rhe formed over time was evaluated spectrophotometrically. Degradation of DIA was expressed in mol% of Rhe formation. The stabilising capability was compared to that obtained with HP-β-CD by applying the protocol to DIA/HP-β-CD solutions in CB, with molar ratios of 1:3, 1:5, and 1:10.

Series [2] is described as follows: Osmolality of eye drops (osmometer). In kind it is physicochemical. The conditions noted are these: eye drops in CB. Here is the method:
Male New Zealand albino rabbits weighing approximately 2.6-3 Kg, kept in standard housing conditions, were used for in vivo studies. The animals were treated as prescribed in the guidelines of the European Community Council Directive 2010/63. The animal protocol was approved by the Italian Ministry of University and Research (authorisation n. 192/2019-PR). The eye drops were prepared in CB (200 mOsm/kg). […] (588 mOsm/kg). A suspension of plain DIA (0.34 M) in CB was used as a reference sample (230 mOsm/kg). The samples' osmolality was checked using a Roebling osmometer (calibrated with NaCl 300 mOsm/kg H2O).

A short description of series [3]: DIA elimination and degradation kinetics in tear fluid. In kind it is in vivo, New Zealand albino rabbits. The following applies: one drop (50 μL), 0.27 M IL, n = 10. Here is the method: Male New Zealand albino rabbits weighing approximately 2.6–3 Kg, kept in standard housing conditions, were used for in vivo studies. The animals were treated as prescribed in the guidelines of the European Community Council Directive 2010/63. The animal protocol was approved by the Italian Ministry of University and Research (authorisation n. 192/2019-PR). The eye drops were prepared in CB (200 mOsm/kg). […] A suspension of plain DIA (0.34 M) in CB was used as a reference sample (230 mOsm/kg). The samples’ osmolality was checked using a Roebling osmometer (calibrated with NaCl 300 mOsm/kg H2O).
[…] CB was used as blank control. At predefined intervals (i.e., 2, 4, 6, 8, 10, 15, 20, 25, and 30 min from instillation), tear fluid samples were taken from the lower margin strip using 1 µL disposable glass capillaries (Microcaps, Drummond Scientific Co., USA), which were washed with 1 µL and diluted with 100 µL of CB. The diluted samples were analysed by HPLC. […] For each of the three formulations studied, elimination curves were constructed, each determined from a single eye of different rabbits.

In series [4] the test system is P. aeruginosa ATCC 27853. The series can be described thus: MIC determination (microdilution). In kind it is cell-based, Pseudomonas aeruginosa. Here is the method: A clinical isolate of S. aureus (W4) and the reference strain of P. aeruginosa ATCC 27853 were used in the study. For the preparation of stock cultures, bacterial strains were grown in Luria–Bertani broth (LB, Oxoid, Basingstoke, Hampshire, UK) until the late-log phase, subdivided into aliquots, and kept frozen at −80 °C until use. Identification and susceptibility testing of the S. aureus W4 strain were performed using MALDI-TOF (Bruker Daltonics, Bremen, Germany) and the BD Phoenix susceptibility testing system (BD, Milan, Italy), respectively.
The susceptibility of the bacterial strains to each of the tested compounds was assessed in terms of MIC values according to the standard microdilution method (Clinical and Laboratory Standards Institute–CLSI, 2018), with some modifications. Briefly, the bacteria were grown in LB broth until the exponential growth phase and then diluted in the same medium to reach a final density of 5 × 10^6 CFU/mL. A volume of 10 μL of the bacterial suspensions was added to 90 μL of LB in a 96-well plate in the absence (viability control) or presence of the test compound at different concentrations.
Background: Dilution methods test growth across graded concentrations, often in twofold steps.

The nature of series [5]: Phase solubility study (apparent solubility of DIA and Rhe with ILs or HP-β-CD). In kind it is physicochemical. The following applies: 25 °C, thermodynamic from solid, read-out: saturation solubility. Here is the method:
The increase in the apparent solubility of both DIA and Rhe in the presence of the ILs was evaluated. Briefly, aqueous solutions of the ILs were prepared in the range of 0–200 mg/mL, and an excess of either DIA or Rhe was added to each vial. The samples were then incubated for 30 min at 25°C, and the undissolved drug was removed by centrifugation at […] for 15 min (Hettich Mikro 120 centrifuge). […] The drug concentration was measured by UV–Vis analysis. The DIA phase solubility study was also compared to the phase solubility study of DIA in the presence of HP-β-CD as a reference solubility/stability-enhancing excipient. […] The complexation K was calculated through Higuchi and Connors’ method, as previously reported.
The size distribution and zeta potential values of the ILs’ aggregates in aqueous solutions were evaluated by using a Zetasizer Nano ZS (Malvern) at 25 °C. The samples were prepared by adding an excess of either DIA or Rhe (5 mg/mL) to the aqueous IL solutions, incubating them for 30 min at 25 °C, and finally removing the excess drugs by centrifugation. […] In contrast, for PB solutions, the solutions were prepared in water, and […] of 100 mM pH 7 phosphate buffer was added per 1 mL of aqueous solution, directly in the cuvette, before the dynamic light scattering (DLS) analysis started. The concentrations of the solubilised drug were determined by UV–Vis analysis.

Each structure is given as a SMILES string. Converted amounts (≈) assume the structure as drawn. Read-outs that look alike come from different tables or passages of the source. Some results are limits rather than exact numbers.

One may read the MRT as a mean duration of stay, worked out from the concentration-time curve. As a reminder, the MIC is the lowest concentration that inhibits growth of the organism. For the molecule `CC(=O)Oc1cccc2c1C(=O)c1c(OC(C)=O)cc(C(=O)O)cc1C2=O` [DIA, diacerein], the “degradation of DIA” value is reported as 39% in series [1] (0.018 M Bet6) and 73% in series [1] (0.04 M Bet6). The DIA degraded was 91% in series [1] (0.018 M Carn6 solution) and 98% in series [1] (0.04 M Carn6 solution). Besides, the “DIA preserved for 6 h” value in series [1] (0.27 M Bet6 solution (nanoaggregates)) is reported as 71%; in series [1] (0.35 M Bet6 solution (nanoaggregates)), 85%. Also, the entries for the “DIA not hydrolysed after 6 h” value in series [1] (Carn6 nanoaggregates present (0.27 M)) and in series [1] (Carn6 nanoaggregates present (0.35 M)) were 26% and 34%, respectively. In addition, the osmolality in series [2] came out at 230 mOsm/kg. This molecule showed an MRT in series [3] (male, New Zealand albino, topical, 50 µL (one drop) of 0.34 M DIA, DIA in rabbit tear fluid) of 4.55 min. Also, in series [3] (rabbit tear fluid, 0.34 M DIA), the “AUC (DIA concentration in tear fluid vs time)” value worked out at 0.06 ± 0.002. Further, the MIC in series [4] (Pseudomonas aeruginosa, ATCC27853, planktonic cells, 24 h, 37 °C) is > 50 µg/mL. The antibacterial effect result in series [4] (in words (discussion)) was “inactive”. Also, the solubility at 30 min in series [5] (Bet6 solutions in citrate buffer, pH 5, aqueous with cosolvent or surfactant or cyclodextrin, in Bet6 solutions) came out at 1350 µg/mL (≈ 3670 µM); in series [5] (aqueous Carn6 solutions, aqueous with cosolvent or surfactant or cyclodextrin, in Carn6 solutions), 680 µg/mL (≈ 1850 µM).

The values above are taken from publication PMC9916883, “Betaine- and L-Carnitine-Based Ionic Liquids as Solubilising and Stabilising Agents for the Formulation of Antimicrobial Eye Drops Containing Diacerein” (International Journal of Molecular Sciences, 2023).
